The subject of data set [1] is mice. Description: Colonic compliance in awake mice. Conditions: awake healthy mice. It counts as in vivo, mouse. The procedure:
Noxious colorectal distension (CRD) triggers the visceromotor response (VMR), a nociceptive brainstem reflex consisting of contraction of abdominal muscles, which can be monitored by electromyography. This approach allows assessment of visceral sensitivity in awake mice (Castro, J. et al., Br. J. Pharmacol. 2017, 175(12): 2384-2398). To examine protease-induced hy-persensitivity, a protease mixture (10 nM trypsin+100 nM NE+100 nM CS) or vehicle (saline) (100 μL) was instilled into the colon (enema) of healthy mice. After 15 min, the VMR was measured in response to graded CRD (20-80 mm Hg) with a barostat balloon. In vehicle-treated mice, CRD induced a graded VMR (FIG. 9I). […] Because alterations in the compliance of the colon can alter VMR to CRD, the pressure/volume relationship was measured at all distending pressures. Compliance of the colon was unaffected by the protease mixture or I-343 (FIGS. 21E and F). […]
Electromyography (EMG) of abdominal muscles was used to monitor VMR to CRD (Eichel, K. et al., Nat. Cell Biol. 2016, 18(3): 303-310). […] The EMG signal was recorded (NL100AK headstage), amplified (NL104), filtered (NL 125/126, Neurolog, Digitimer Ltd, bandpass 50-5000 Hz), and digitized (CED 1401, Cambridge Electronic Design) for off-line analysis using Spike2 (Cambridge Electronic Design). […]

Data set [2] has as its system mice. Description: Paw inflammation after intraplantar injection (paw thickness, neutrophil infiltration). Format: in vivo, mouse. The conditions noted are these: WT mice; for paw thickness after intraplantar protease: calipers. From the text: Proteases may induce pain by activating PAR2 on nociceptors or other cell types. To determine the contribution of PAR2 on nociceptors, mice were bred expressing PAR2 flanked by LoxP sites (Par2^lox/lox) with mice expressing Cre recombinase targeted to nociceptors using the NaV1.8 promoter (Scn10a) (Stirling L. C. et al., Pain 2005, 113(1-2): 27-36). Par2-NaV1.8 mice lacked immunoreactive PAR2 in NaV1.8-positive nociceptors (FIG. 1A). Whereas 31% (20 of 65) of small-diameter (<25 μm) DRG neurons from WT mice responded to trypsin (100 nM) with increased [Ca^2+]i, only 6% (3 of 51) of neurons from Par2-NaV1.8 mice responded (FIGS. 1B, 11A, and 11B). Nociception was assessed by measuring withdrawal responses to stimulation of the plantar surface of the hindpaw with von Frey filaments. […] In Par2-NaV1.8 mice, the initial responses were maintained, but responses after 120 min were diminished. […] Trypsin-induced inflammation was markedly diminished in Par2-NaV1.8 mice.
Mice were acclimatized to the experimental apparatus, room and investigator for 1-2 h on 2 successive days before studies. Investigators were blinded to the test agents. Mice were sedated (5% isoflurane) for intraplantar injections. Dy4a, Dy4 inact, PS2, PS2 inact (all 50 μM) or vehicle (0.2% DMSO in 0.9% NaCl) (10 μl) was injected into the left hindpaw. After 30 min, trypsin (10 or 80 nM), CS (2.5 or 5 μM) or NE (1.2 or 3.9 μM) (all 10 μl) was injected into the same hindpaw. Mechanical nociceptive responses were evaluated by examining paw withdrawal to stimulation of the plantar surface of the hind-paw with calibrated von Frey filaments. von Frey scores were measured in triplicate to establish a baseline for each animal on the day before experiments, and were then measured for up to 4 h after protease administration. To assess edema, paw thickness was measured at the site of injection between the plantar and the dorsal surfaces of the paw using digital calipers. […] Ly6G/Ly6c was detected with goat anti-rat horseradish peroxidase conjugated multimer incubated for 16 min.

Entries after “also recorded” stand apart in the source; their conditions may differ.

These results are taken from patent US20200383985A1, “Inhibitors of Protease Activated Receptor-2” (Endosome Therapeutics, Inc., priority 2017, published 2020).

For `Cc1nc(C(=O)N2CCN(C(=O)c3cn4nc(-c5ccc(F)cc5)cc(C(C)(C)C)c4n3)C(C)(C)C2)n[nH]1` [Compound I-343, (8-(tert-butyl)-6-(4-fluorophenyl)imidazo[1,2-b]pyridazin-2-yl)(2,2-dimethyl-4-(5-methyl-1H-1,2,4-triazole-3-carbonyl)piperazin-1-yl)methanone], the “compliance of the colon (pressure/volume relationship)” value in the data set with mice [1] is reported as “unaffected; also recorded: unchanged”.

“NE: protease (elastase) activating PAR2 by biased mechanisms”: the “paw thickness after intraplantar protease” value in the data set on mice [2] is recorded as “increased paw thickness”.

With trypsin, in the data set on mice [2] (after 4 h), the “neutrophil influx into the paw” value is “stimulated an influx of neutrophils”. Besides, the “paw thickness after intraplantar protease” value in the data set with mice [2] is on record as “increased paw thickness”.
